Here are results for 25 molecules from ChEMBL document CHEMBL1135504, “Structure-activity relationships of the melanocortin tetrapeptide Ac-His-DPhe-Arg-Trp-NH(2) at the mouse melanocortin receptors: part 2 modifications at the Phe position” (J Med Chem, 2002).

pEC50, pKi: −log10 of the molar value. Where a SMILES comes first, the peptide text is derived from it.

Assay [1] has as its target T1, Melanocortin receptor 3 (Mus musculus, UniProt P33033). In words: Agonist activity to the mouse Melanocortin-3 receptor (mMC3R). It counts as functional.
In a further assay the target is Melanocortin receptor 4 (Mus musculus, UniProt P56450). In words: Agonist activity to the mouse Melanocortin-4 receptor (mMC4R). It counts as functional.
The target of another assay is Melanocortin receptor 5 (Mus musculus, UniProt P41149). In words: Agonist activity towards mouse Melanocortin-5 receptor (mMC5R). Format: functional.
For assay [2], the target named is Melanocyte-stimulating hormone receptor (Mus musculus, UniProt Q01727). In words: Agonist activity to the mouse Melanocortin-1 receptor (mMC1R). It counts as functional.
In assay [3] the target is T1, Melanocortin receptor 3. Nature of the assay: Agonist activity of compound towards mouse Melanocortin-3 receptor (mMC3R); partial agonist. Format: functional. As to conditions: read-out: pA2 (converted).
For assay [4], the target named is T1, Melanocortin receptor 3. In words: Binding constant (Ki) at mouse Melanocortin-3 receptor.

T1 sequence (P33033 whole entry): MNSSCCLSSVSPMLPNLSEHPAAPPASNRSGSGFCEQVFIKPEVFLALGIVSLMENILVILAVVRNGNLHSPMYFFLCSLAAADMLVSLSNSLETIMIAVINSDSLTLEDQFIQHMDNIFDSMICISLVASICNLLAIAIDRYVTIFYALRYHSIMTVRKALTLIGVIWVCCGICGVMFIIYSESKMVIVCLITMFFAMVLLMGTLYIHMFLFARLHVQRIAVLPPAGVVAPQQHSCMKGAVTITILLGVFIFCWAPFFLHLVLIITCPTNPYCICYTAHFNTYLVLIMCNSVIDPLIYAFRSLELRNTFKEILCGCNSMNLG
Sequence of Melanocortin receptor 5 (P41149 whole entry): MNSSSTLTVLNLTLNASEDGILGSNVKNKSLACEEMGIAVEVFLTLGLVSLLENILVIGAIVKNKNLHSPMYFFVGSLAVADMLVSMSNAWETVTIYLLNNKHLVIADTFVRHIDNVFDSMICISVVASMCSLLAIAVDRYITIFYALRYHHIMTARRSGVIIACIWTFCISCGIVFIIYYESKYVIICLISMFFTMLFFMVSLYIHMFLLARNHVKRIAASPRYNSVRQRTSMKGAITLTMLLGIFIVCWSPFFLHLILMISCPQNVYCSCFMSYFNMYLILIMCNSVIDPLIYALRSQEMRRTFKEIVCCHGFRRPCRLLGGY
Sequence of Melanocyte-stimulating hormone receptor (Q01727 whole entry): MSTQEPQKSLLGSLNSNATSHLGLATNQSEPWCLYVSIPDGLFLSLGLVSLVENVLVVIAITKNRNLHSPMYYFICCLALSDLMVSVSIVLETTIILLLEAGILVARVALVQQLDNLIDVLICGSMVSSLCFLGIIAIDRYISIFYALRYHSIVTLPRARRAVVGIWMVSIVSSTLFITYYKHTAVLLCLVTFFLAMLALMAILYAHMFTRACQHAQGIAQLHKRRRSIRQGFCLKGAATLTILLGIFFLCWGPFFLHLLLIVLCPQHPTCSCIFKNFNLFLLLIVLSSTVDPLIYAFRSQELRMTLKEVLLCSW
Sequence of Melanocortin receptor 4 (P56450 whole entry): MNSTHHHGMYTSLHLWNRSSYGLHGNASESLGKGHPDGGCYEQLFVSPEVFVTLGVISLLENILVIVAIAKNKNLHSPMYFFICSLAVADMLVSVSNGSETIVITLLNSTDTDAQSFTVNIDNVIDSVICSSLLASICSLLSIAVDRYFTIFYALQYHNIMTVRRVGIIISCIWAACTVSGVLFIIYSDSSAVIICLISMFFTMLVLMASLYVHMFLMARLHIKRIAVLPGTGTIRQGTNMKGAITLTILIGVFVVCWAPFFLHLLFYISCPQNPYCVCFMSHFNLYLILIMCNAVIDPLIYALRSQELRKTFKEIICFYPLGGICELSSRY

For the molecule `CC(=O)N[C@@H](Cc1c[nH]cn1)C(=O)N[C@@H](CCc1ccccc1)C(=O)N[C@@H](CCCN=C(N)N)C(=O)N[C@@H](Cc1c[nH]c2ccccc12)C(N)=O`, the negative-log EC50 (pEC50) on Melanocortin receptor 3 [1] is less than 4.00; at Melanocortin receptor 4 it was less than 4.00; on Melanocortin receptor 5 it was 4.93; in assay [2], 4.48.

Regarding `CC(=O)N[C@@H](Cc1cnc[nH]1)C(=O)N[C@H](Cc1ccc2ccccc2c1)C(=O)N[C@@H](CCCNC(=N)N)C(=O)N[C@@H](Cc1c[nH]c2ccccc12)C(N)=O`, the Kb on Melanocortin receptor 3 [3] is 295 nM. For the same molecule, the negative-log EC50 (pEC50) at Melanocortin receptor 5 is 7.46; in assay [2], 6.78. The molecule further had a pKi at Melanocortin receptor 3 [4] of 6.53.

Turning to `CC(=O)N[C@@H](Cc1cnc[nH]1)C(=O)N[C@@H](Cc1cccnc1)C(=O)N[C@@H](CCCNC(=N)N)C(=O)N[C@@H](Cc1c[nH]c2ccccc12)C(N)=O`, the negative-log EC50 (pEC50) at Melanocortin receptor 3 [1] is less than 4.00; on Melanocortin receptor 4 it was less than 4.00; on Melanocortin receptor 5, 4.44; in assay [2], 4.64.

In the case of `CC(=O)N[C@@H](Cc1c[nH]cn1)C(=O)N[C@@H](Cc1ccc2ccccc2c1)C(=O)N[C@@H](CCCN=C(N)N)C(=O)N[C@@H](Cc1c[nH]c2ccccc12)C(N)=O`, the pEC50 on Melanocortin receptor 3 [1] was less than 4.00; on Melanocortin receptor 5, 5.13; in assay [2], 4.66.

For the molecule `CC(=O)N[C@@H](Cc1cnc[nH]1)C(=O)N[C@H](Cc1ccc(O)cc1)C(=O)N[C@@H](CCCNC(=N)N)C(=O)N[C@@H](Cc1c[nH]c2ccccc12)C(N)=O`, the negative logarithm of the EC50 (pEC50) is 4.47 on Melanocortin receptor 3 [1], 5.62 at Melanocortin receptor 4, 6.20 at Melanocortin receptor 5 and 5.49 in assay [2].

`CC(=O)N[C@@H](Cc1c[nH]cn1)C(=O)N[C@@H](C(=O)N[C@@H](CCCN=C(N)N)C(=O)N[C@@H](Cc1c[nH]c2ccccc12)C(N)=O)C(c1ccccc1)c1ccccc1`: the negative logarithm of the EC50 (pEC50) on Melanocortin receptor 3 [1] was less than 4.00; at Melanocortin receptor 4 it was 5.30; at Melanocortin receptor 5 it was 5.37; in assay [2] it was 5.82.

Turning to `CC(=O)N[C@@H](Cc1cnc[nH]1)C(=O)N[C@H](C(=O)N[C@@H](CCCNC(=N)N)C(=O)N[C@@H](Cc1c[nH]c2ccccc12)C(N)=O)c1ccccc1`, the pEC50 at Melanocortin receptor 3 [1] was 4.36; at Melanocortin receptor 4 it was 4.39; on Melanocortin receptor 5, 5.40; in assay [2] it was 4.83.

On to `CC(=O)N[C@@H](Cc1c[nH]cn1)C(=O)N[C@@H](C(=O)N[C@@H](CCCN=C(N)N)C(=O)N[C@@H](Cc1c[nH]c2ccccc12)C(N)=O)c1ccccc1`, for which the pEC50 is less than 4.00 at Melanocortin receptor 3 [1], less than 4.00 at Melanocortin receptor 4 and 4.77 in assay [2].

In the case of `CC(=O)N[C@@H](Cc1c[nH]cn1)C(=O)N[C@H](Cc1ccc(-c2ccccc2)cc1)C(=O)N[C@@H](CCCN=C(N)N)C(=O)N[C@@H](Cc1c[nH]c2ccccc12)C(N)=O`, the negative logarithm of the EC50 (pEC50) is 5.69 at Melanocortin receptor 3 [1], 7.16 on Melanocortin receptor 4, 7.94 at Melanocortin receptor 5 and 7.55 in assay [2].

As for `CC(=O)N[C@@H](Cc1cnc[nH]1)C(=O)N[C@@H](Cc1cccc2ccccc12)C(=O)N[C@@H](CCCNC(=N)N)C(=O)N[C@@H](Cc1c[nH]c2ccccc12)C(N)=O`, the negative logarithm of the EC50 (pEC50) is less than 4.00 at Melanocortin receptor 3 [1], less than 4.00 on Melanocortin receptor 4, 4.95 on Melanocortin receptor 5 and 4.82 in assay [2].

With `CC(=O)N[C@@H](Cc1cnc[nH]1)C(=O)N[C@H](Cc1cccc2ccccc12)C(=O)N[C@@H](CCCNC(=N)N)C(=O)N[C@@H](Cc1c[nH]c2ccccc12)C(N)=O`, the pEC50 on Melanocortin receptor 3 [1] is 5.39; at Melanocortin receptor 4, 6.52; on Melanocortin receptor 5, 7.29; in assay [2], 6.45.

For `CC(=O)N[C@@H](Cc1c[nH]cn1)C(=O)N[C@H](Cc1c[nH]c2ccccc12)C(=O)N[C@@H](CCCN=C(N)N)C(=O)N[C@@H](Cc1c[nH]c2ccccc12)C(N)=O`, the pEC50 on Melanocortin receptor 3 [1] was less than 4.00; on Melanocortin receptor 4, less than 4.00; on Melanocortin receptor 5, 5.16; in assay [2], 4.60.

For the molecule `CC(=O)N[C@@H](Cc1cnc[nH]1)C(=O)N[C@@H](Cc1ccc(-c2ccccc2)cc1)C(=O)N[C@@H](CCCNC(=N)N)C(=O)N[C@@H](Cc1c[nH]c2ccccc12)C(N)=O`, the pEC50 on Melanocortin receptor 3 [1] is less than 4.00; at Melanocortin receptor 5 it was 5.26; in assay [2] it was 4.97.

Consider `CC(=O)N[C@@H](Cc1cnc[nH]1)C(=O)N[C@@H](Cc1ccncc1)C(=O)N[C@@H](CCCNC(=N)N)C(=O)N[C@@H](Cc1c[nH]c2ccccc12)C(N)=O`, for which the pEC50 at Melanocortin receptor 3 [1] was less than 4.00; at Melanocortin receptor 4, 4.61; on Melanocortin receptor 5, 5.01; in assay [2] it was 4.44.

Consider `CC(=O)N[C@@H](Cc1cnc[nH]1)C(=O)N[C@H](CCc1ccccc1)C(=O)N[C@@H](CCCNC(=N)N)C(=O)N[C@@H](Cc1c[nH]c2ccccc12)C(N)=O`, for which the pEC50 on Melanocortin receptor 3 [1] was less than 4.00; at Melanocortin receptor 4, 4.95; at Melanocortin receptor 5 it was 5.55; in assay [2], 5.20.

On to `CC(=O)N[C@@H](Cc1cnc[nH]1)C(=O)N[C@@H](Cc1c[nH]c2ccccc12)C(=O)N[C@@H](CCCNC(=N)N)C(=O)N[C@@H](Cc1c[nH]c2ccccc12)C(N)=O`, for which the pEC50 on Melanocortin receptor 3 [1] was less than 4.00; on Melanocortin receptor 4, 4.46; on Melanocortin receptor 5 it was 4.74; in assay [2] it was 4.48.

`CC(=O)N[C@@H](Cc1cnc[nH]1)C(=O)N[C@H](C(=O)N[C@@H](CCCNC(=N)N)C(=O)N[C@@H](Cc1c[nH]c2ccccc12)C(N)=O)C(c1ccccc1)c1ccccc1`: the pEC50 was less than 4.00 on Melanocortin receptor 3 [1], less than 4.00 on Melanocortin receptor 4, less than 4.00 on Melanocortin receptor 5 and 4.72 in assay [2].

For `CC(=O)N[C@@H](Cc1c[nH]cn1)C(=O)N[C@@H](Cc1ccccc1)C(=O)N[C@@H](CCCN=C(N)N)C(=O)N[C@@H](Cc1c[nH]c2ccccc12)C(N)=O`, the pEC50 on Melanocortin receptor 4 was 8.68.

Take `CC(=O)N[C@@H](Cc1c[nH]cn1)C(=O)N1Cc2ccccc2C[C@@H]1C(=O)N[C@@H](CCCN=C(N)N)C(=O)N[C@@H](Cc1c[nH]c2ccccc12)C(N)=O`: the negative-log EC50 (pEC50) at Melanocortin receptor 3 [1] was less than 4.00; at Melanocortin receptor 4 it was less than 4.00; on Melanocortin receptor 5, less than 4.00; in assay [2], 4.39.

Turning to `CC(=O)N[C@@H](Cc1c[nH]cn1)C(=O)N1Cc2ccccc2C[C@H]1C(=O)N[C@@H](CCCN=C(N)N)C(=O)N[C@@H](Cc1c[nH]c2ccccc12)C(N)=O`, the negative logarithm of the EC50 (pEC50) at Melanocortin receptor 3 [1] was less than 4.00; at Melanocortin receptor 4, less than 4.00; at Melanocortin receptor 5, 4.67; in assay [2], 4.27.

With `CC(=O)N[C@@H](Cc1cnc[nH]1)C(=O)N[C@@H](C)C(=O)N[C@@H](CCCNC(=N)N)C(=O)N[C@@H](Cc1c[nH]c2ccccc12)C(N)=O` (Ac-HARW-NH2), the pEC50 at Melanocortin receptor 3 [1] is less than 4.00; on Melanocortin receptor 4, less than 4.00; on Melanocortin receptor 5, less than 4.00; in assay [2] it was 4.52.

For `CC(=O)N[C@@H](Cc1c[nH]cn1)C(=O)N[C@@H](Cc1c[nH]cn1)C(=O)N[C@@H](CCCN=C(N)N)C(=O)N[C@@H](Cc1c[nH]c2ccccc12)C(N)=O` (Ac-HHRW-NH2), the pEC50 on Melanocortin receptor 3 [1] was less than 4.00; on Melanocortin receptor 4 it was less than 4.00; at Melanocortin receptor 5 it was 4.39; in assay [2] it was 4.38.

For the molecule `CC(=O)N[C@@H](Cc1cnc[nH]1)C(=O)N[C@@H](Cc1ccc(O)cc1)C(=O)N[C@@H](CCCNC(=N)N)C(=O)N[C@@H](Cc1c[nH]c2ccccc12)C(N)=O` (Ac-HYRW-NH2), the pEC50 at Melanocortin receptor 3 [1] is less than 4.00; at Melanocortin receptor 4, less than 4.00; on Melanocortin receptor 5, 4.49; in assay [2] it was 4.21.

With `CC(=O)N[C@@H](Cc1c[nH]cn1)C(=O)NC1(C(=O)N[C@@H](CCCN=C(N)N)C(=O)N[C@@H](Cc2c[nH]c3ccccc23)C(N)=O)CCc2ccccc2C1` (stereo in doubt; 25), the pEC50 was 5.00 on Melanocortin receptor 3 [1], 5.75 on Melanocortin receptor 4, 6.58 at Melanocortin receptor 5 and 5.63 in assay [2].

Consider `CC(=O)N[C@@H](Cc1c[nH]cn1)C(=O)NC1(C(=O)N[C@@H](CCCN=C(N)N)C(=O)N[C@@H](Cc2c[nH]c3ccccc23)C(N)=O)CCc2ccccc2C1` (stereo in doubt; 26), for which the pEC50 at Melanocortin receptor 3 [1] was 5.11; at Melanocortin receptor 4, 5.15; on Melanocortin receptor 5, 5.68; in assay [2], 5.24.

Usually pEC50 stands for the EC50 on a negative log10 scale, so that one unit is a factor of ten. Low values mean a high EC50, high ones a low EC50. The pKi is the negative decadic logarithm of the Ki, by convention in mol/L. Low readings indicate a large Ki, high ones a small Ki.
